Test results reported in ChEMBL document CHEMBL1649359, “Izumiphenazines A-C: isolation and structure elucidation of phenazine derivatives from Streptomyces sp. IFM 11204” (2010).

Experiments:
Assay type in all cases: functional
AGS [1] = assay: Induction of apoptosis in TRAIL-resistant human AGS cells assessed as decrease in cell viability at 40 uM after 24 hrs by fluorometric microculture cytotoxic assay in presence of TRAIL relative to in absence of TRAIL
AGS [2] = assay: Induction of apoptosis in TRAIL-resistant human AGS cells assessed as decrease in cell viability at 20 uM after 24 hrs by fluorometric microculture cytotoxic assay in presence of TRAIL relative to in absence of TRAIL
AGS [3] = assay: Induction of apoptosis in TRAIL-resistant human AGS cells assessed as decrease in cell viability at 30 uM after 24 hrs by fluorometric microculture cytotoxic assay in presence of TRAIL relative to in absence of TRAIL

`O=C(O)c1cc2c(c3nc4c(O)cccc4nc13)[C@@H]1Cc3nc4cccc(O)c4nc3[C@@H](O)[C@@H]1O2` [IZUMIPHENAZINE A] gave an Activity (AGS [1]) of 78%.
`CN(c1ccc(C(=O)O)cc1)c1cccc2nc3c(O)cccc3nc12` [IZUMIPHENAZINE C] gave an Activity (AGS [2]) of 26%.
`O=C1C[C@H](c2c(O)cc(C(=O)O)c3nc4cccc(O)c4nc23)Cc2nc3cccc(O)c3nc21` [IZUMIPHENAZINE B] gave an Activity (AGS [3]) of 30%.
